Literature values in patent publication EP4670741A1 (priority 2023, dated 2024).

Legend:
Topoisomerase I = target: T1, Topoisomerase I (Homo sapiens, UniProt P11387); details: Topoisomerase I inhibitor
T1 sequence (P11387 1-765): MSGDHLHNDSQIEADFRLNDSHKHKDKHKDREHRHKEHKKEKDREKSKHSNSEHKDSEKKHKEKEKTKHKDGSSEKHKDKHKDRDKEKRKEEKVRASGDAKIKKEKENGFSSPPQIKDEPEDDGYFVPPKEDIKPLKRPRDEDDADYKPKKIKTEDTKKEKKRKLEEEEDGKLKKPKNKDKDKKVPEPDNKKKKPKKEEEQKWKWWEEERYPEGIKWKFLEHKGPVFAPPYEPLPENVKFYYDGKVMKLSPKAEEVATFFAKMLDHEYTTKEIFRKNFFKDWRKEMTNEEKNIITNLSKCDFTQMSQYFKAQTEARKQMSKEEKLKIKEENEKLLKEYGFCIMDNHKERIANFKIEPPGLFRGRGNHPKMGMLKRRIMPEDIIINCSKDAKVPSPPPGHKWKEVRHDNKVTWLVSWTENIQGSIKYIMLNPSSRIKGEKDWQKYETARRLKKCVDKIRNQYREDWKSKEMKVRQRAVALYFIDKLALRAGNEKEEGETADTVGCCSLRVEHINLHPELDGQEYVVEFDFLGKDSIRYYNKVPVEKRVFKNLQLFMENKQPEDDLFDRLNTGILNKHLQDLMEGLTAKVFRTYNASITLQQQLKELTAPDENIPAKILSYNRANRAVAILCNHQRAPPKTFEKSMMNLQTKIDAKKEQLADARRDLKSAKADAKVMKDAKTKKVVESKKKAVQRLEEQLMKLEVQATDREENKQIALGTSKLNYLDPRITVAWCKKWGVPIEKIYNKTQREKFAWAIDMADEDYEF

[1] = tested on: various cancer cell lines; details: read-out: IC50 values; 140 cell lines derived from various tumor types; majority of tested cancer cells

SMILES	IC50 (Topoisomerase I)	IC50 [1]
CC[C@@]1(O)C(=O)OCc2c1cc1n(c2=O)Cc2c-1nc1cc(F)c(C)c3c1c2[C@@H](NC(=O)CO)CC3 [Dxd]	310 nM	
CC[C@@]1(O)C(=O)OCc2c1cc1n(c2=O)Cc2cc3cc4c(cc3nc2-1)OCO4 [FL118]		< 100 nM
